In ChEMBL document CHEMBL1201862, “PubChem BioAssay data set” (2004):
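Step 1: Grow cells in 96-well plates. Step 2: Expose to compound for 48 hours at 5 concentrations. Step 3: Interpolate endpoints linearly; if unreached, use highest concentration. At the GI50, growth is halved.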 Active and inactive are the calls of the source. Rule as the data show it: active = GI50 up to about 1.1 µM and inactive = higher.

Experiments:
Experiment in all cases: NCI tumour cell line growth inhibition, 48 h
[1] = test system: 786-0
[2] = test system: A498
[3] = test system: A549
[4] = test system: ACHN
[5] = test system: BT-549
[6] = test system: CAKI-1
[7] = test system: CCRF-CEM
[8] = test system: COLO 205
[9] = test system: DU-145
[10] = test system: EKVX
[11] = test system: HCC 2998
[12] = test system: HCT-116
[13] = test system: HCT-15
[14] = test system: HL-60
[15] = test system: HOP-62
[16] = test system: HOP-92
[17] = test system: HT-29
[18] = test system: Hs-578T
[19] = test system: IGROV-1
[20] = test system: K562
[21] = test system: KM12
[22] = test system: LOX IMVI
[23] = test system: M14
[24] = test system: MCF7
[25] = test system: MDA-MB-231
[26] = test system: MDA-MB-435
[27] = test system: MDA-N
[28] = test system: MOLT-4
[29] = test system: Malme-3M
[30] = test system: NCI-H226
[31] = test system: NCI-H23
[32] = test system: NCI-H460
[33] = test system: NCI-H522
[34] = test system: NCI/ADR-RES
[35] = test system: OVCAR-3
[36] = test system: OVCAR-4
[37] = test system: OVCAR-5
[38] = test system: OVCAR-8
[39] = test system: PC-3
[40] = test system: RPMI-8226
[41] = test system: RXF 393
[42] = test system: SF-268
[43] = test system: SF-295
[44] = test system: SF-539
[45] = test system: SK-MEL-28
[46] = test system: SK-MEL-2
[47] = test system: SK-MEL-5
[48] = test system: SN12C
[49] = test system: SNB-19
[50] = test system: SNB-75
[51] = test system: SW-620
[52] = test system: T47D
[53] = test system: U-251
[54] = test system: UACC-257
[55] = test system: UACC-62
[56] = test system: UO-31
[57] = test system: TK-10
[58] = test system: SK-OV-3
[59] = test system: SR

CC1(C)OC1COc1c2occc2cc2ccc(=O)oc12 (centres undefined)
GI50 [1]: > 100 µM (inactive)
GI50 [2]: > 100 µM (inactive)
GI50 [3]: 67.6 µM (inactive)
GI50 [4]: > 100 µM (inactive)
GI50 [5]: 38.8 µM (inactive)
GI50 [6]: > 100 µM (inactive)
GI50 [7]: > 100 µM (inactive)
GI50 [8]: > 100 µM (inactive)
GI50 [9]: > 100 µM (inactive)
GI50 [10]: 58.6 µM (inactive)
GI50 [11]: > 100 µM (inactive)
GI50 [12]: > 100 µM (inactive)
GI50 [13]: > 100 µM
GI50 [14]: 70.5 µM (inactive)
GI50 [15]: > 100 µM (inactive)
GI50 [16]: > 100 µM (inactive)
GI50 [17]: > 100 µM (inactive)
GI50 [18]: > 100 µM (inactive)
GI50 [19]: > 100 µM (inactive)
GI50 [20]: > 100 µM (inactive)
GI50 [21]: > 100 µM (inactive)
GI50 [22]: > 100 µM (inactive)
GI50 [23]: > 100 µM (inactive)
GI50 [24]: > 100 µM (inactive)
GI50 [25]: > 100 µM (inactive)
GI50 [26]: > 100 µM (inactive)
GI50 [27]: > 100 µM (inactive)
GI50 [28]: 79.3 µM (inactive)
GI50 [29]: > 100 µM (inactive)
GI50 [30]: > 100 µM (inactive)
GI50 [31]: > 100 µM (inactive)
GI50 [32]: 40.6 µM (inactive)
GI50 [33]: > 100 µM (inactive)
GI50 [34]: > 100 µM (inactive)
GI50 [35]: > 100 µM (inactive)
GI50 [36]: > 100 µM (inactive)
GI50 [37]: > 100 µM (inactive)
GI50 [38]: 60.5 µM (inactive)
GI50 [39]: > 100 µM (inactive)
GI50 [40]: 39.2 µM (inactive)
GI50 [41]: > 100 µM (inactive)
GI50 [42]: > 100 µM (inactive)
GI50 [43]: > 100 µM (inactive)
GI50 [44]: > 100 µM (inactive)
GI50 [45]: > 100 µM (inactive)
GI50 [46]: > 100 µM (inactive)
GI50 [47]: 86.3 µM (inactive)
GI50 [48]: > 100 µM (inactive)
GI50 [49]: > 100 µM (inactive)
GI50 [50]: > 100 µM (inactive)
GI50 [51]: > 100 µM (inactive)
GI50 [52]: 79.1 µM (inactive)
GI50 [53]: > 100 µM (inactive)
GI50 [54]: > 100 µM (inactive)
GI50 [55]: 33.1 µM (inactive)
GI50 [56]: 72.4 µM (inactive)

O=c1[nH]nc(Cc2ccc(Cl)cc2)n1/N=C\c1ccc(/C=N/n2c(Cc3ccc(Cl)cc3)n[nH]c2=O)cc1
GI50 [1]: 13.3 µM (inactive)
GI50 [2]: > 100 µM (inactive)
GI50 [3]: > 100 µM (inactive)
GI50 [4]: 29.9 µM (inactive)
GI50 [5]: > 100 µM (inactive)
GI50 [6]: 33.3 µM (inactive)
GI50 [7]: > 100 µM (inactive)
GI50 [8]: > 100 µM (inactive)
GI50 [9]: > 100 µM (inactive)
GI50 [10]: > 100 µM (inactive)
GI50 [12]: > 100 µM (inactive)
GI50 [13]: > 100 µM
GI50 [14]: > 100 µM (inactive)
GI50 [15]: 17 µM (inactive)
GI50 [16]: 28.3 µM (inactive)
GI50 [17]: > 100 µM (inactive)
GI50 [18]: 35.7 µM (inactive)
GI50 [19]: > 100 µM (inactive)
GI50 [20]: > 100 µM (inactive)
GI50 [21]: > 100 µM (inactive)
GI50 [22]: > 100 µM (inactive)
GI50 [23]: > 100 µM (inactive)
GI50 [24]: > 100 µM (inactive)
GI50 [25]: 17.2 µM (inactive)
GI50 [26]: > 100 µM (inactive)
GI50 [27]: > 100 µM (inactive)
GI50 [28]: > 100 µM (inactive)
GI50 [29]: > 100 µM (inactive)
GI50 [30]: 96.6 µM (inactive)
GI50 [31]: > 100 µM (inactive)
GI50 [32]: > 100 µM (inactive)
GI50 [33]: > 100 µM (inactive)
GI50 [34]: 90.2 µM (inactive)
GI50 [35]: 81.7 µM (inactive)
GI50 [36]: 76.4 µM (inactive)
GI50 [37]: > 100 µM (inactive)
GI50 [38]: 54 µM (inactive)
GI50 [39]: > 100 µM (inactive)
GI50 [40]: > 100 µM (inactive)
GI50 [41]: 29.7 µM (inactive)
GI50 [42]: 37.9 µM (inactive)
GI50 [43]: > 100 µM (inactive)
GI50 [45]: > 100 µM (inactive)
GI50 [46]: 38.5 µM (inactive)
GI50 [47]: > 100 µM (inactive)
GI50 [48]: 57.3 µM (inactive)
GI50 [49]: 50.7 µM (inactive)
GI50 [51]: > 100 µM (inactive)
GI50 [52]: > 100 µM (inactive)
GI50 [57]: 0.855 µM (active)
GI50 [53]: 26.6 µM (inactive)
GI50 [54]: > 100 µM (inactive)
GI50 [55]: > 100 µM (inactive)
GI50 [56]: > 100 µM (inactive)

CC1CC(C#N)=C2NCCN2C1=O (centres undefined)
GI50 [1]: > 100 µM (inactive)
GI50 [3]: > 100 µM (inactive)
GI50 [5]: > 100 µM (inactive)
GI50 [6]: 51.9 µM (inactive)
GI50 [7]: > 100 µM (inactive)
GI50 [8]: 22.1 µM (inactive)
GI50 [9]: > 100 µM (inactive)
GI50 [10]: > 100 µM (inactive)
GI50 [11]: > 100 µM (inactive)
GI50 [13]: > 100 µM
GI50 [14]: > 100 µM (inactive)
GI50 [15]: > 100 µM (inactive)
GI50 [17]: > 100 µM (inactive)
GI50 [18]: > 100 µM (inactive)
GI50 [19]: > 100 µM (inactive)
GI50 [20]: > 100 µM (inactive)
GI50 [21]: > 100 µM (inactive)
GI50 [22]: 30.8 µM (inactive)
GI50 [23]: 19.4 µM (inactive)
GI50 [24]: 20.8 µM (inactive)
GI50 [25]: > 100 µM (inactive)
GI50 [26]: 18.3 µM (inactive)
GI50 [27]: 16.4 µM (inactive)
GI50 [28]: > 100 µM (inactive)
GI50 [29]: 94 µM (inactive)
GI50 [30]: > 100 µM (inactive)
GI50 [31]: > 100 µM (inactive)
GI50 [32]: > 100 µM (inactive)
GI50 [33]: 95.1 µM (inactive)
GI50 [34]: > 100 µM (inactive)
GI50 [35]: > 100 µM (inactive)
GI50 [36]: > 100 µM (inactive)
GI50 [38]: > 100 µM (inactive)
GI50 [39]: > 100 µM (inactive)
GI50 [40]: > 100 µM (inactive)
GI50 [41]: > 100 µM (inactive)
GI50 [42]: > 100 µM (inactive)
GI50 [43]: > 100 µM (inactive)
GI50 [44]: > 100 µM (inactive)
GI50 [45]: > 100 µM (inactive)
GI50 [46]: > 100 µM (inactive)
GI50 [47]: 15.2 µM (inactive)
GI50 [58]: > 100 µM (inactive)
GI50 [48]: > 100 µM (inactive)
GI50 [49]: > 100 µM (inactive)
GI50 [50]: > 100 µM (inactive)
GI50 [59]: > 100 µM (inactive)
GI50 [51]: 31.9 µM (inactive)
GI50 [52]: > 100 µM (inactive)
GI50 [57]: > 100 µM (inactive)
GI50 [53]: > 100 µM (inactive)
GI50 [54]: 78 µM (inactive)
GI50 [55]: > 10 µM (inactive)
GI50 [56]: > 100 µM (inactive)
